Assay results published in ChEMBL document CHEMBL1139232, “Isothiazoloquinolones with enhanced antistaphylococcal activities against multidrug-resistant strains: effects of structural modifications at the 6-, 7-, and 8-positions” (J Med Chem, 2007).
In brackets after ≈: the same amount, converted by molar mass.

Experiments:
[1] = Cytotoxicity against human Hep2 cell line after 72 hrs; type: cell-based, HEp-2; details: Hep2 cells
Staphylococcus aureus [2] = experiment: Antibacterial activity against methicillin-resistant Staphylococcus aureus; type: functional
Staphylococcus aureus [3] = experiment: Antibacterial activity against Staphylococcus aureus; type: functional
Staphylococcus aureus [4] = experiment: Antibacterial activity against Staphylococcus aureus ATCC 33591 infected in CD1 mouse at 10 mg/kg, sc; type: functional; details: route subcutaneous
Staphylococcus aureus [5] = experiment: Antibacterial activity against vancomycin intermediate-resistant Staphylococcus aureus F977218; type: functional
Staphylococcus aureus [6] = experiment: Antibacterial activity against vancomycin intermediate-resistant Staphylococcus aureus F988653; type: functional
Staphylococcus aureus [7] = experiment: Antibacterial activity against vancomycin intermediate-resistant Staphylococcus aureus F977215; type: functional
Staphylococcus aureus [8] = experiment: Antibacterial activity against vancomycin intermediate-resistant Staphylococcus aureus F988647; type: functional
Staphylococcus aureus [9] = experiment: Antibacterial activity against vancomycin-resistant Staphylococcus aureus F800238; type: functional
Staphylococcus aureus [10] = experiment: Antibacterial activity against vancomycin-resistant Staphylococcus aureus F800236; type: functional
Staphylococcus aureus [11] = experiment: Antibacterial activity against vancomycin intermediate-resistant Staphylococcus aureus F977210; type: functional
Staphylococcus aureus [12] = experiment: Antibacterial activity against vancomycin intermediate-resistant Staphylococcus aureus F988650; type: functional
Staphylococcus aureus [13] = experiment: Antibacterial activity against vancomycin intermediate-resistant Staphylococcus aureus F988644; type: functional
[14] = Inhibition of Staphylococcus aureus topoisomerase 4 by decatenation assay
[15] = target: DNA topoisomerase 2-alpha (Homo sapiens) (UniProt P11388)
[16] = Cytotoxicity against human HepG2 cells after 72 hrs; type: cell-based
Staphylococcus aureus [17] = experiment: Antibacterial activity against methicillin-sensitive Staphylococcus aureus; type: functional

Sequence of DNA topoisomerase 2-alpha (Homo sapiens) (P11388 whole entry): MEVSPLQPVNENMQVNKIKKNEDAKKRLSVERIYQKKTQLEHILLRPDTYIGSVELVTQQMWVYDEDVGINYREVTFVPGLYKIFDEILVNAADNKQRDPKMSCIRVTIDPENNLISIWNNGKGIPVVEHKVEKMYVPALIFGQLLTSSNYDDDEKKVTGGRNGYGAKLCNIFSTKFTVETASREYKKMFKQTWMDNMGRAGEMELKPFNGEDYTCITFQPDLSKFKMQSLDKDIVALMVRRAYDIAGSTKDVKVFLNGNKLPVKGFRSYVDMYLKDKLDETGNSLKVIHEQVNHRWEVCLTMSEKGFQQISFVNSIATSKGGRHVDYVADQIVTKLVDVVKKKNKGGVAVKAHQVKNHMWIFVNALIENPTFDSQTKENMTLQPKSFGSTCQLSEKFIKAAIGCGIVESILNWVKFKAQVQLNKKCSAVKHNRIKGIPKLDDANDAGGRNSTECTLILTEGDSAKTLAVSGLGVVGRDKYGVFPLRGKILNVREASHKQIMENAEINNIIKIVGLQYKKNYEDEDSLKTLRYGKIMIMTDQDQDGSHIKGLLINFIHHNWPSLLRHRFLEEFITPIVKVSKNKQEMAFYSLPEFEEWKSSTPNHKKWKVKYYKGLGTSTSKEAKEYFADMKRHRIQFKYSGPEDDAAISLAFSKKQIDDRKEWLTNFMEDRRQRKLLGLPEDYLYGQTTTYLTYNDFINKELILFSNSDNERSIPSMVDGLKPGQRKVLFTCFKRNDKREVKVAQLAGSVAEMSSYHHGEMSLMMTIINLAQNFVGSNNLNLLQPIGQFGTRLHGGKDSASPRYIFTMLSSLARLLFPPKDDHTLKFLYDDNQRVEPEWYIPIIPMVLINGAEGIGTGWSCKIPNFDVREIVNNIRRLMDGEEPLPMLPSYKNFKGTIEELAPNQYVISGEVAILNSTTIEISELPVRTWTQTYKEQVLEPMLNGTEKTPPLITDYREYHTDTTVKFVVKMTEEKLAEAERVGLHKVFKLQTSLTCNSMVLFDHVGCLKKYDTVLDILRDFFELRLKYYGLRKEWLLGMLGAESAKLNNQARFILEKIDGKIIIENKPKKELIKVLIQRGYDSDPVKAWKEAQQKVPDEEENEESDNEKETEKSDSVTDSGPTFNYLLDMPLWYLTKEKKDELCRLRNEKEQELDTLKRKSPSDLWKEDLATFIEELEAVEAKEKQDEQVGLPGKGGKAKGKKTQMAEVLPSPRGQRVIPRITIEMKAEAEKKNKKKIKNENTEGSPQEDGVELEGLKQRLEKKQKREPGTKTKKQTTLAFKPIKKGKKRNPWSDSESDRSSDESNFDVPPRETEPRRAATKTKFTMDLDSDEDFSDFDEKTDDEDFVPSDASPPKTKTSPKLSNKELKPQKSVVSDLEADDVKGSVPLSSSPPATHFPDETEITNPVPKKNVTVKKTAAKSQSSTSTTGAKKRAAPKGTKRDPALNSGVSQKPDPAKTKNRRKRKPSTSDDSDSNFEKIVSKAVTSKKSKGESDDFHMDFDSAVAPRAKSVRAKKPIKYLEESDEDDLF

In the case of COc1c(-c2ccc3c(c2)CNC3)ccc2c(=O)c3c(=O)[nH]sc3n(C3CC3)c12, the CC50 at 72 h [1] is reported as 97 µM and the MIC (Staphylococcus aureus [2]) is reported as 2 µg/mL (≈ 4.93 µM).

In the case of COc1c(-c2ccnc(C)c2)ccc2c(=O)c3c(=O)[nH]sc3n(C3CC3)c12, the CC50 at 72 h [1] is reported as greater than 100 µM and the MIC (Staphylococcus aureus [2]) is reported as 1 µg/mL (≈ 2.64 µM).

Compound Cc1cc(-c2nc3c(cc2F)c(=O)c2c(=O)[nH]sc2n3C2CC2)cc(C)n1 has a CC50 at 72 h [1] greater than 100 µM and an MIC (Staphylococcus aureus [2]) of 64 µg/mL (≈ 167 µM).

For CN[C@H](CC(C)C)C(=O)N[C@H]1C(=O)N[C@@H](CC(N)=O)C(=O)N[C@H]2C(=O)N[C@H]3C(=O)N[C@H](C(=O)N[C@H](C(=O)O)c4cc(O)cc(O)c4-c4cc3ccc4O)[C@H](O)c3ccc(c(Cl)c3)Oc3cc2cc(c3O[C@@H]2O[C@H](CO)[C@@H](O)[C@H](O)[C@H]2O[C@H]2C[C@](C)(N)[C@H](O)[C@H](C)O2)Oc2ccc(cc2Cl)[C@H]1O [VANCOMYCIN], the MIC50 (Staphylococcus aureus [3]) was 1 µg/mL (≈ 0.69 µM), the MIC90 (Staphylococcus aureus [3]) was 8 µg/mL (≈ 5.52 µM) and the Log10 cfu (Staphylococcus aureus [4]) was 0.31. The MIC (Staphylococcus aureus [5]) was 8 µg/mL (≈ 5.52 µM), the MIC (Staphylococcus aureus [6]) was 8 µg/mL (≈ 5.52 µM) and the MIC (Staphylococcus aureus [7]) was 8 µg/mL (≈ 5.52 µM). The MIC (Staphylococcus aureus [8]) was 8 µg/mL (≈ 5.52 µM), the MIC (Staphylococcus aureus [9]) was greater than 32 µg/mL and the MIC (Staphylococcus aureus [10]) was greater than 32 µg/mL. The MIC (Staphylococcus aureus [11]) was 8 µg/mL (≈ 5.52 µM), the MIC (Staphylococcus aureus [12]) was 8 µg/mL (≈ 5.52 µM) and the MIC (Staphylococcus aureus [13]) was 8 µg/mL (≈ 5.52 µM). It also gave an MIC50 (Staphylococcus aureus [2]) of 1 µg/mL (≈ 0.69 µM) and an MIC90 (Staphylococcus aureus [2]) of 8 µg/mL (≈ 5.52 µM).

For COc1c(-c2ccc3cnccc3c2)c(F)cc2c(=O)c3c(=O)[nH]sc3n(C3CC3)c12, the CC50 at 72 h [1] was 39 µM and the MIC (Staphylococcus aureus [2]) was 0.12 µg/mL (≈ 0.277 µM).

Work on COc1c(-c2ccc3c(c2)CCNC3)c(F)cc2c(=O)c3c(=O)[nH]sc3n(C3CC3)c12 yielded a CC50 at 72 h [1] of 57 µM and an MIC (Staphylococcus aureus [2]) of 2 µg/mL (≈ 4.57 µM).

COc1c(-c2ccc3cnccc3c2)ccc2c(=O)c3c(=O)[nH]sc3n(C3CC3)c12 showed a CC50 at 72 h [1] of 45 µM and an MIC (Staphylococcus aureus [2]) of 0.12 µg/mL (≈ 0.289 µM).

In the case of COc1c(-c2ccc3c(c2)CCN(C)C3)ccc2c(=O)c3c(=O)[nH]sc3n(C3CC3)c12, the CC50 at 72 h [1] is reported as greater than 100 µM and the MIC (Staphylococcus aureus [2]) is reported as 8 µg/mL (≈ 18.5 µM).

O=C(O)c1cn(C2CC2)c2cc(N3CCNCC3)c(F)cc2c1=O [CIPROFLOXACIN] showed an IC50 [14] of 1 µM, an EC2 [15] greater than 150 µM and a CC50 at 72 h [1] greater than 100 µM. For the same compound, the CC50 at 72 h [16] was greater than 100 µM, the MIC (Staphylococcus aureus [17]) was 0.25 µg/mL (≈ 0.754 µM) and the MIC (Staphylococcus aureus [2]) was 32 µg/mL (≈ 96.6 µM).

With O=c1[nH]sc2c1c(=O)c1cc(F)c(-c3ccncc3)nc1n2C1CC1 the CC50 at 72 h [1] was greater than 100 µM and the MIC (Staphylococcus aureus [2]) was 2 µg/mL (≈ 5.64 µM).

COc1c(-c2ccc3c(c2)CCN(C)C3)c(F)cc2c(=O)c3c(=O)[nH]sc3n(C3CC3)c12 gave a CC50 at 72 h [1] of 61 µM and an MIC (Staphylococcus aureus [2]) of 4 µg/mL (≈ 8.86 µM).

In the case of COc1c(-c2ccc3c(c2)CCNC3)ccc2c(=O)c3c(=O)[nH]sc3n(C3CC3)c12, the CC50 at 72 h [1] is reported as 89 µM and the MIC (Staphylococcus aureus [2]) is reported as 4 µg/mL (≈ 9.54 µM).

In the case of Cc1cc(-c2nc3c(cc2F)c(=O)c2c(=O)[nH]sc2n3C2CC2)ccn1, the CC50 at 72 h [1] is reported as greater than 100 µM and the MIC (Staphylococcus aureus [2]) is reported as 8 µg/mL (≈ 21.7 µM).

COc1c(-c2ccncc2)ccc2c(=O)c3c(=O)[nH]sc3n(C3CC3)c12 showed a CC50 at 72 h [1] greater than 100 µM and an MIC (Staphylococcus aureus [2]) of 0.5 µg/mL (≈ 1.37 µM).
